pIC50: −log10 of the molar value. “Also recorded” adds a separate entry of the source.
How the values were obtained:
BaF3 wild-type cells = assay: Cellular screening, BaF3 wild-type cells (Alamar Blue); type: cell-based; conditions: Mus musculus, 48-72 hr incubation, read-out: BAF3wt_IC50_μM
Method: (§1) For screening purposes, compounds were diluted in 96 well plates at a concentration of 20 μM. Plates were warmed at 37° C. for 30 minutes before the assay was performed.
The growth factor dependent myelomonocytic cell line BaF3 bearing the pTET-off plasmid (Clontech) was transfected with either pTELJAK2 or pTELJAK3, and the transfected cells were selected for growth-factor independent cell growth. The BaF3 wild-type cells were cultured in DMEM containing 10% FCS, 10% WEHI 3B conditioned medium. The BaF3 TELJAK cells ([…]) were cultured in DMEM 10% Tet-System Approved FBS (without WEHI 3B conditioned medium).
(§2) Cell suspensions were prepared by harvesting cells from culture (the cells used in this test were in late log phase growth with high viability.) Cells were diluted in the appropriate growth medium, as described above, to 1.1× final concentration (from 50,000 cell/mL to 200,000 cell/mL, depending on cell line).
(§3) Compounds to be tested were added (10 μL, 10× final concentration) to a flat bottomed 96-well plate. The cellular suspension (90 μL per well) was then added, and the plate incubated for 48-72 hr at 37° C., 5% CO2. Alamar Blue 10 μL per well was added and the plates returned to the incubator for a further 4-6 hours. The plates were then read at 544 nm.
(§4) Result are given in table 2 where +++ is <1 μM, ++ is <5 μM and + is <20 μM

[1] = system: IL-3 induced STAT5 phosphorylation in BaF3 cells; assay: Western blot of IL-3 induced STAT5 phosphorylation in BaF3 cells; type: cell-based, murine; conditions: 2 hours compound, mouse IL-3 5 ng/ml 15 minutes
Method: The Western blots were treated with a STAT5 phospho-specific antibody and exposed to film for 5 minutes (top blot) and 1 minute (middle blot).
The murine pro-B cell line BaF3 was routinely maintained in RPMI 1640 media containing 10% FCS. On the day of the experiment, cells were washed twice in PBS, and resuspended in RPMI 1640 media containing 0.1% FCS. […] Mouse IL-3 was then added to cells at a final concentration of 5 ng/ml for 15 minutes. Cells were then placed on ice and washed twice in ice-cold PBS. Washed cell pellets were snap-frozen in liquid nitrogen and stored at −80° C.
(§5) Cell pellets were lysed on ice in RIPA buffer, and lysates clarified by centrifugation (20,000×g, 4° C., 5 min). The protein concentration of lysates was determined by the Bradford method, and equal amounts of protein (60 μg/lane) were separated by SDS-PAGE. Protein was then transferred to PVDF, and Western blotting performed using an antibody that specifically recognizes STAT5 phosphorylated at tyrosine 694. The membrane was then stripped and reprobed with an antibody that recognizes total STAT5 protein.

[2] = system: STAT5 phosphorylation in HEL 92.1.7 cells; assay: Intracellular flow cytometric (FACS) analysis of STAT5 phosphorylation in HEL cells; type: cell-based, human; conditions: HEL 92.1.7 cells, 0.25, 0.5, 1, or 2 μM, 2 hours
Method: After treatment the cells were stained with mouse monoclonal anti-STAT5 (Y694) PE antibody and analyzed using fluorescence activated cell sorting (FACS). The histograms are shaded according to the fold change in median fluorescence relative to the isotype control (Isocont lane in clear outline).
The human erythroleukemic cell line, HEL 92.1.7 (ATCC, TIB-180), was grown in RPMI 1640 containing 10% PCS supplemented with 1 mM sodium pyruvate. For phosphor-STAT 5 determination, HEL cells were grown in RPMI 1640+1% PCS for 18 hours at 37° C. and 2×10^5 cells per assay point were exposed to DMSO/test compounds for 2 hours at 37° C. The cells were centrifuged at 1300 rpm for 3 minutes and fixed in paraformaldehyde (2% final concentration) for 15 minutes at 37° C. After centrifugation, cells were permeabilized in 90% methanol at 4° C. for 30 minutes. […]
Staining proceeded for 1 hour at room temperature in the dark, followed by 3 washes in PBS-2% FCS. […] The median fluorescence intensity (MFI) was used to determine fold change upon treatment of cells with specific inhibitor compounds, calculated as the MFIstimulated/MFIunstimulated ratio for the phosphospecific antibody fluorescence channel (FL2).

[3] = system: STAT5 phosphorylation in HEL 92.1.7 cells; assay: Western blot of STAT5 phosphorylation in HEL cells; type: cell-based, human; conditions: 2 hours
Method: The Western blots were treated with a STAT5 phosphospecific antibody and exposed to film for 5 minutes (top blot) and 1 minute (middle blot).
The human erythroleukemic cell line HEL 92.1.7 was routinely maintained in RPMI 1640 media containing 10% FCS. The day before the experiment, cells were washed twice in PBS, resuspended in RPMI 1640 media containing 1% FCS, and cultured overnight.
Cells were then placed on ice and washed twice in ice-cold PBS. Washed cell pellets were snap-frozen in liquid nitrogen and stored at −80° C.
as §5

CTLL2 = assay: Cellular screening, CTLL2 cells (Alamar Blue); type: cell-based; conditions: Mus musculus, CTLL-2; 48-72 hr incubation; read-out: CTLL2_IC50_μM
Method: as §1, §2, §3, §4

pIC50 (BaF3 wild-type cells): > 5.30
Compound: N#CCNC(=O)c1ccc(-c2ccnc(Nc3ccc(N4CCOCC4)cc3)n2)cc1 [Compound 3, N-(cyanomethyl)-4-(2-(4-morpholinophenyl-amino)pyrimidin-4-yl)benzamide]
effect on IL-3 induced STAT5 phosphorylation (Western blot) [1]: dose-dependent effect; also recorded: decrease in STAT5 phosphorylation | effect on STAT5 phosphorylation (FACS) [2]: dose-dependent effect | effect on STAT5 phosphorylation (Western blot) [3]: decrease in STAT5 phosphorylation | pIC50 (CTLL2): > 5.30

Source: patent publication US12570614B2, “Phenyl amino pyrimidine compounds and uses thereof” (GlaxoSmithKline LLC, priority 2007, dated 2026)
